Read-outs that look alike come from different tables or passages of the source.

Test [1] deals with recombinant human Mcl-1 (residues 171-327) / Bim interaction (Homo sapiens (Human), UniProt Q07820). In words: biochemical. Format: binding. Conditions: read-out: Mcl-1 HTRF IC50.
Test [2] has as its system human multiple myeloma cell line, OPM-2. In words: Cell viability assay (OPM-2 10 FBS), CellTiter-Glo. Format: cell-based. Put shortly:
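IC50 values come from 4-parameter logistic fits of luminescence signals reflecting cell viability. Treatment lasted 16 h at 37 °C in complete medium with 10% FBS, starting from 3000 cells/well.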

Where [3] appears, read: TR-FRET, Mcl-1(171-327) / biotin-Bim (51-76).
Where [4] appears, read: Homo sapiens, OPM-2, 16 h, read-out: OPM-2 10% FBS IC50 IP, OPM-2 cells, 10% FBS, 16 h, CellTiter-Glo.
Where [5] appears, read: read-out: OPM-2 10% FBS IC50 IP, OPM-2 cells, 10% FBS, 16 h, CellTiter-Glo.

recombinant human Mcl-1 (residues 171-327) / Bim interaction, sequence (Q07820 171-327): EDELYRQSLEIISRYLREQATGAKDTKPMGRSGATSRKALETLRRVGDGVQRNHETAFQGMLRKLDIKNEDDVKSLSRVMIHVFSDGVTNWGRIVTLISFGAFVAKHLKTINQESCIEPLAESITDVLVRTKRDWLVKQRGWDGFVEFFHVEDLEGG

As to `Cc1ccnc(C[C@]2(O)/C=C/C[C@H](C)[C@@H](C)S(=O)(=O)NC(=O)c3ccc4c(c3)N(C[C@@H]3CC[C@H]32)C[C@@]2(CCCc3cc(Cl)ccc32)CO4)c1` [Example 100533, (1S,3′R,6′R,7′S,8′E,11′S,12′R)-6-chloro-7′-hydroxy-11′,12′-dimethyl-7′-((4-methyl-2-pyridinyl)methyl)-3,4-dihydro-2H,15′H-spiro[naphthalene-1,22′-[20]oxa[13]thia[1,14]diazatetracyclo [14.7.2.0~3,6~.0~19,24~]pentacosa[8,16,18,24]tetraen]-15′-one 13′,13′-dioxide], the IC50 – broadly, the concentration that inhibits the measured activity by half – is 8.56 nM in test [1] (setting [3]) and 3990 nM in test [2] (setting [4]).
Consider `C[C@@H]1[C@@H](C)C/C=C/[C@@](O)(CS(C)(=O)=O)[C@@H]2CC[C@H]2CN2C[C@@]3(CCCc4cc(Cl)ccc43)COc3ccc(cc32)C(=O)NS1(=O)=O` [Example 100073, (1S,3′R,6′R,7′S,8′E,11′S,12′R)-6-chloro-7′-hydroxy-11′,12′-dimethyl-7′-((methylsulfonyl)methyl)-3,4-dihydro-2H,15′H-spiro[naphthalene-1,22′-[20]oxa[13]thia[1,14]diazatetracyclo [14.7.2.0~3,6~.0~19,24~]pentacosa[8,16,18,24]tetraen]-15′-one 13′,13′-dioxide], for which the IC50 in test [1] (setting [3]) was found to be 0.346 nM; in test [2] (setting [5]) it was 1200 nM.
For the compound `C[C@@H]1[C@@H](C)CCC[C@@](O)(CC(=O)N2CCOC2=O)[C@@H]2CC[C@H]2CN2C[C@@]3(CCCc4cc(Cl)ccc43)COc3ccc(cc32)C(=O)NS1(=O)=O` (stereo in doubt) [Example 100154, (1S,3′R,6′R,7′R,11′S,12′R)-6-chloro-7′-hydroxy-11′,12′-dimethyl-7′-(2-oxo-2-(2-oxo-1,3-oxazolidin-3-yl)ethyl)-3,4-dihydro-2H,15′H-spiro[naphthalene-1,22′-[20]oxa[13]thia[1,14]diazatetracyclo [14.7.2.0~3,6~.0~19,24~]pentacosa[16,18,24]rien]-15′-one 13′,13′-dioxide], the IC50 was 1.72 nM in test [1] (setting [3]) and 1070 nM in test [2] (setting [5]).
`C[C@@H]1[C@@H](C)C/C=C/[C@@](O)(CC(=O)N2CCCC2)[C@@H]2CC[C@H]2CN2C[C@@]3(CCCc4cc(Cl)ccc43)COc3ccc(cc32)C(=O)NS1(=O)=O` [Example 100252, (1S,3′R,6′R,7′S,8′E,11′S,12′R)-6-chloro-7′-hydroxy-11′,12′-dimethyl-7′-(2-oxo-2-(1-pyrrolidinyl)ethyl)-3,4-dihydro-2H,15′H-spiro[naphthalene-1,22′-[20]oxa[13]thia[1,14]diazatetracyclo [14.7.2.0~3,6~.0~19,24~]pentacosa[8,16,18,24]tetraen]-15′-one 13′,13′-dioxide]: the IC50 in test [1] (setting [3]) worked out at 0.112 nM; in test [2] (setting [5]), 77 nM.
Take `C[C@@H]1[C@@H](C)C/C=C/[C@@](O)(CC(=O)N2CCN3CCOC[C@H]3C2)[C@@H]2CC[C@H]2CN2C[C@@]3(CCCc4cc(Cl)ccc43)COc3ccc(cc32)C(=O)NS1(=O)=O` [Example 100311, (1S,3′R,6′R,7′S,8′E,11′S,12′R)-6-chloro-7′-(2-((9aR)-hexahydropyrazino[2,1-c][1,4]oxazin-8(1H)-yl)-2-oxoethyl)-7′-hydroxy-11′,12′-dimethyl-3,4-dihydro-2H,15′H-spiro[naphthalene-1,22′-[20]oxa[13]thia[1,14]diazatetracyclo [14.7.2.0~3,6~.0~19,24~]pentacosa[8,16,18,24]tetraen]-15′-one 13′,13′-dioxide]: the results for the IC50 in test [1] (setting [3]) and in test [2] (setting [4]) were 1.03 nM and 1190 nM, respectively.
For `CO[C@@]1(CC(=O)N(C)C2CCC2)/C=C/C[C@H](C)[C@@H](C)S(=O)(=O)NC(=O)c2ccc3c(c2)N(C[C@@H]2CC[C@H]21)C[C@@]1(CCCc2cc(Cl)ccc21)CO3` [Example 100450, 2-((1S,3′R,6′R,7′S,8′E,11′S,12′R)-6-chloro-7′-methoxy-11′,12′-dimethyl-13′,13′-dioxido-15′-oxo-3,4-dihydro-2H-spiro[naphthalene-1,22′-[20]oxa[13]thia[1,14]diazatetracyclo [14.7.2.0~3,6~.0~19,24~]pentacosa[8,16,18,24]tetraen]-7′-yl)-N-cyclobutyl-N-methylacetamide], the IC50 in test [1] (setting [3]) was 0.336 nM; in test [2] (setting [4]), 1910 nM.
Take `C=CC[C@@]1(O)/C=C/C[C@H](C)[C@@H](C)S(=O)(=O)NC(=O)c2ccc3c(c2)N(C[C@@H]2CC[C@H]21)C[C@@]1(CCCc2cc(Cl)ccc21)CO3` [Example 100130, (1S,3′R,6′R,7′R,8′E,11′S,12′R)-6-chloro-7′-hydroxy-11′,12′-dimethyl-7′-(2-propen-1-yl)-3,4-dihydro-2H,15′H-spiro[naphthalene-1,22′-[20]oxa[13]thia[1,14]diazatetracyclo [14.7.2.0~3,6~.0~19,24~]pentacosa[8,16,18,24]tetraen]-15′-one 13′,13′-dioxide]: the IC50 came to 2.69 nM in test [1] (setting [3]) and 2170 nM in test [2] (setting [5]).
With `CC[C@@]1(O)/C=C/C[C@H](C)[C@@H](C)S(=O)(=O)NC(=O)c2ccc3c(c2)N(C[C@@H]2CC[C@H]21)C[C@@]1(CCCc2cc(Cl)ccc21)CO3` [Example 100206, (1S,3′R,6′R,7′R,8′E,11′S,12′R)-6-chloro-7′-ethyl-7′-hydroxy-11′,12′-dimethyl-3,4-dihydro-2H,15′H-spiro[naphthalene-1,22′-[20]oxa[13]thia[1,14]diazatetracyclo [14.7.2.0~3,6~.0~19,24~]pentacosa[8,16,18,24]tetraen]-15′-one 13′,13′-dioxide], the IC50 in test [1] (setting [3]) was 1.26 nM; in test [2] (setting [4]), 1750 nM.
For `CO[C@@]1(COCCN2CCOCC2)/C=C/C[C@H](C)[C@@H](C)S(=O)(=O)NC(=O)c2ccc3c(c2)N(C[C@@H]2CC[C@H]21)C[C@@]1(CCCc2cc(Cl)ccc21)CO3` [Example 100590, (1S,3′R,6′R,7′S,8′E,11′S,12′R)-6-chloro-7′-methoxy-11′,12′-dimethyl-7′-((2-(4-morpholinyl)ethoxy)methyl)-3,4-dihydro-2H,15′H-spiro[naphthalene-1,22′-[20]oxa[13]thia[1,14]diazatetracyclo [14.7.2.0~3,6~.0~19,24~]pentacosa[8,16,18,24]tetraen]-15′-one 13′,13′-dioxide], the IC50 in test [1] (setting [3]) amounted to 0.086 nM; in test [2] (setting [4]) it was 501 nM.
On to `CO[C@@]1(CN2CCN3CCC(F)(F)CC3C2)/C=C/C[C@H](C)[C@@H](C)S(=O)(=O)NC(=O)c2ccc3c(c2)N(C[C@@H]2CC[C@H]21)C[C@@]1(CCCc2cc(Cl)ccc21)CO3` (mixture of isomers) [Example 273], for which the IC50 in test [1] (0.1 nM Mcl-1(171-327), 0.05 nM biotin-Bim (51-76)) turned out to be 0.494 nM; in test [2] (read-out: OPM-2 10% FBS IC50 IP, OPM-2 cells, 10% FBS, 16 h incubation) it was 501 nM.
In the case of `CO[C@]1(C2SCCCS2)/C=C/[C@H](C)[C@H](C)CS(=O)(=O)NC(=O)c2ccc3c(c2)N(C[C@@H]2CC[C@H]21)C[C@@]1(CCCc2cc(Cl)ccc21)CO3` [Example 100569, (1S,3′R,6′R,7′R,8′E,10′S,11′S)-6-chloro-7′-(1,3-dithian-2-yl)-7′-methoxy-10′,11′-dimethyl-3,4-dihydro-2H,15′H-spiro[naphthalene-1,22′-[20]oxa[13]thia[1,14]diazatetracyclo [14.7.2.0~3,6~.0~19,24~]pentacosa[8,16,18,24]tetraen]-15′-one 13′,13′-dioxide], the IC50 in test [1] (setting [3]) was determined as 2.48 nM; in test [2] (setting [4]) it was 2000 nM.
